Laboratory results taken from patent publication US10420758B2, “Indolinyl-sulfonamide inhibitors of tankyrase and methods of use thereof” (The Board of Regents of the University of Texas System, priority 2015, dated 2019).

Test system: Dvl2
Experiment: Ligand-dependent phosphorylation of Dvl2
Type: cell-based, human
Conditions: HeLa cells, FIG. 4E
Description: FIGS. 4A-4F show Tnks inhibitors induce telomeric stress in human cells independently of Wnt/β-catenin pathway inhibition. (FIG. 4A) Porcn inhibitors afford a Tnks-independent approach to disrupting Wnt/β-catenin signaling. Chemicals targeting the Wnt acyltransferase Porcn abrogate Wnt palmitoylation which in turn results in loss of activity of the Frizzled (Fzd) family of Wnt receptors. Fzd receptors directly induce activation of the cytoplasmic signaling molecule Dishevelled (Dvl) in a ligand-dependent manner, which in turn results in activation of β-catenin and transcription mediated by the TCF family of DNA binding proteins. IWP-2 and the clinical candidate LGK-974 represent two structurally distinct Porcn inhibitors. (FIG. 4B) Tnks but not Porcn inhibitors induce DNA damage at telomeres. The appearance of co-localized Terf2 and pH2A.X (an indicator of DNA damage at the telomere ends; Telomere Induced Foci or TIFs) was scored using indirect immunofluorescence in Hela cells (expressing wild-type Apc protein). (FIG. 4C) Quantification of results represented in “B”. Cells with >5 TIFs were scored as positive for telomeric damage (left bars). Mean total phosphorylated H2A.X (γ H2A.X) was used to measure general DNA damage responses (right bars). […] Digital droplet-based telomerase extension analysis of genomic DNA isolated from HeLa cells treated for 24 hrs with indicated compounds. […]

| SMILES | ligand-dependent phosphorylation of Dvl2 |
| --- | --- |
| Cc1ccc2nc(NC(=O)CSc3nc4c(c(=O)n3-c3ccccc3)SCC4)sc2c1 [IWP-2] | block ligand-dependent phosphorylation of Dvl2 |
| Cc1cc(-c2ncc(CC(=O)Nc3ccc(-c4cnccn4)cn3)cc2C)ccn1 [LGK-974] | block ligand-dependent phosphorylation of Dvl2 |
